Test results: PubChem BioAssay (NCI)
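Exposure lasted 48 hours, with cells grown in 96-well plates and compounds tested at five concentrations. At the TGI there is no net growth.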

Columns and labels:
Assay in all cases: NCI tumour cell line growth inhibition, 48 h
M19-MEL melanoma = tested on: M19-MEL melanoma
DMS 114 small cell lung = tested on: DMS 114 small cell lung
SN12K1 renal = tested on: SN12K1 renal
DLD-1 colon = tested on: DLD-1 colon
KM20L2 colon = tested on: KM20L2 colon
P388 leukemia = tested on: P388 leukemia
SNB-78 CNS = tested on: SNB-78 CNS
XF 498 CNS = tested on: XF 498 CNS
HOP-18 NSCLC = tested on: HOP-18 NSCLC

Measured: TGI

CC(NCCS(=O)(=O)O)C(=O)O (centres undefined)
> 100 µM: all assays above
